According to patent US20230293629A1, “METHODS FOR ATTENUATING RELEASE OF INFLAMMATORY MEDIATORS AND PEPTIDES USEFUL THEREIN” (BIOMARCK PHARMACEUTICALS LTD., priority 2006, published 2023):
Where a SMILES comes first, the peptide text is derived from it. The star is where a group is joined. Myristoyl = CCCCCCCCCCCCCC(=O)*

Test system: isolated canine neutrophils
Test: MPO secretion from isolated canine neutrophils stimulated with PMA + 8-Br-cGMP (FIG. 6, 10, 11)
Assay type: cell-based
Conditions: for MPO secretion: FIG. 6, 100 nM PMA and 10 μM 8-Br-cGMP
Source text: The invention also relates to a new method for blocking any cellular exocytotic secretory process, especially those releasing inflammatory mediators from granules contained within inflammatory cells, whose stimulatory pathways involve the protein kinase C (PKC) substrate MARCKS protein and release of contents from membrane-bound vesicles. Specifically, the inventors have shown that stimulated release of the inflammatory mediator myloperoxidase from human (FIG. 6) or canine (FIG. 7) neutrophils can be blocked in a concentration-dependent manner by the MANS peptide. […] 10 or 100 μM of a control peptide (RNS) has no effect on MPO secretion. In FIG. 7, isolated neutrophils were stimulated to secrete myloperoxidase (MPO) with 100 nM PMA and 10 μM 8-Br-cGMP. […] 10 or 100 μM of a control peptide (RNS) has no effect on MPO secretion. Thus, the peptide may be used therapeutically to block the release of mediators of inflammation secreted from infiltrating inflammatory cells in any tissues. Many of these released mediators are responsible for the extensive tissue damage observed in a variety of chronic inflammatory diseases (i.e., respiratory diseases such as asthma, chronic bronchitis and COPD, inflammatory bowel diseases including ulcerative colitis and Crohn's disease, autoimmune diseases, skin diseases such as rosacea, eczema; and severe acne, arthritic and pain syndromes such as rheumatoid arthritis and fibromyalgia). This invention may be useful for treating diseases such as arthritis, chronic bronchitis, COPD and cystic fibrosis. This invention is accordingly useful for the treatment in both human and animal diseases, especially those affecting equines, canines, felines, and other household pets.
FIGS. 8-12 show MPO secretion for both humans and canines. In all of these experiments, isolated neutrophils were stimulated with LPS at a concentration of 1×10^−6 M for 10 minutes at 37° C. prior to adding the stimuli as indicated in the figures. The LPS primes the cells so they can respond to a secretagogue.
Isolation of PMNs from canine blood—The steps involved in isolating PMN include collecting 10 ml ACD anticoagulated blood. Then layering 5 ml on 3.5 ml PMN isolation media while ensuring that the PMN isolation media (IM) was at room temperature (RI). Next, the blood was centrifuged at room temperature for 30′, 550×g at 1700 RPMs. The low lower white band was transferred into 15 ml conical centrifuge tube (CCFT). Next, 2V HESS with 10% fetal bovine serum […] was added and centrifuged at room temperature for 10′, 400×g at 1400 RPMs. The pellet was then resuspended in 5 ml 1-1ESS with PBS. The cell suspension was added to 50 ml CCFT containing 20 ml of ice cold 0.88% NH4Cl and inverted two to three times. The resulting product was centrifuged for 10′, 800×g at 2000 RPMs, then aspirated and resuspended in 5 ml HBSS with FBS. The prep was examined by counting and cytospin and preferably for whole blood, the cell number should be between 10^9-10^11 cells and for PMNs, cell number should be between 2-4×10^7 cells. See generally, Wang et al., J. Immunol., “Neutrophil-induced changes in the biomechanical properties of endothelial cells: roles of ICAM-1 and reactive oxygen species,” 6487-94 (2000).
MPO Colorimetric Enzyme Assay—Samples were assayed for MPO activity in 96 well round bottom microtiter plates using a sandwich ELISA kit (R & D Systems, Minneapolis, Minn.). […]

Compound: CCCCCCCCCCCCCC(=O)NCC(=O)N[C@@H](C)C(=O)N[C@@H](CCC(N)=O)C(=O)N[C@@H](Cc1ccccc1)C(=O)N[C@@H](CO)C(=O)N[C@@H](CCCCN)C(=O)N[C@H](C(=O)N[C@@H](C)C(=O)N[C@@H](C)C(=O)N[C@@H](CCCCN)C(=O)NCC(=O)N[C@@H](CCC(=O)O)C(=O)N[C@@H](C)C(=O)N[C@@H](C)C(=O)N[C@@H](C)C(=O)N[C@@H](CCC(=O)O)C(=O)N[C@@H](CCCNC(=N)N)C(=O)N1CCC[C@H]1C(=O)NCC(=O)N[C@@H](CCC(=O)O)C(=O)N[C@@H](C)C(=O)N[C@@H](C)C(=O)N[C@H](C(=O)N[C@@H](C)C(=O)O)C(C)C)[C@@H](C)O [MANS] (Myristoyl-GAQFSKTAAKGEAAAERPGEAAVA-OH; C-terminus assumed)
- MPO secretion (10 μM peptide): slight decrease
- MPO secretion (100 (unit not given) peptide): decreased secretion of MPO to control levels

Compound: CCCCCCCCCCCCCC(=O)O[C@@H]1[C@@H](C)[C@@]2(O)[C@@H](C=C(CO)C[C@]3(O)C(=O)C(C)=C[C@@H]23)[C@@H]2C(C)(C)[C@]12OC(C)=O [PMA, phorbol 12-myristate 13-acetate]
- MPO secretion from LPS-stimulated canine neutrophils (FIG. 10, PMA alone, enhanced concentration-dependently by co-stimulation with 8-Br-cGMP): small increase

Compound: CCCCCCCCCCCCCC(=O)NCC(=O)N[C@H](C(=O)N[C@@H](C)C(=O)N1CCC[C@H]1C(=O)N[C@@H](C)C(=O)N[C@@H](C)C(=O)N[C@@H](CCC(=O)O)C(=O)NCC(=O)N[C@@H](C)C(=O)NCC(=O)N[C@@H](C)C(=O)N[C@@H](CCC(=O)O)C(=O)N[C@H](C(=O)N[C@@H](CCCCN)C(=O)N[C@@H](CCCNC(=N)N)C(=O)N[C@@H](C)C(=O)N[C@@H](CO)C(=O)N[C@@H](C)C(=O)N[C@@H](CCC(=O)O)C(=O)N[C@@H](C)C(=O)N[C@@H](CCCCN)C(=O)N[C@@H](CCC(N)=O)C(=O)N[C@@H](C)C(=O)N[C@@H](Cc1ccccc1)C(=O)O)C(C)C)[C@@H](C)O [RNS, reference compound] (Myristoyl-GTAPAAEGAGAEVKRASAEAKQAF-OH; C-terminus assumed)
- MPO secretion (10 or 100 μM peptide): no effect
